Experimental data reported in ChEMBL document CHEMBL1955762, “An iminosugar N-pentafluorobenzyl-1-deoxynojirimycin as a novel potential immunosuppressant for the treatment of Th2-related diseases” (Bioorg Med Chem Lett, 2012).
Active and inactive are the calls of the source. The calls are words filed in the database; no cut-off is given here.

Assays:
[1] = Induction of apoptosis in Con A-stimulated human PBMC assessed as viable cells at 90 uM after 72 hrs by annexin V/PI based flow cytometric analysis (reference value: 84.6 %); format: cell-based; details: read-out: Activity
PBMC [2] = experiment: Immunosuppressant activity in human PBMC assessed as reduction in Con A-induced extracellular IL4 level at 90 uM after 72 hrs by ELISA relative to untreated control; format: functional; design: scale not given: the % may be the effect or the level left
PBMC [3] = experiment: Inhibition of PMA-induced JAK1 expression in human PBMC at 90 uM after 15 mins by Western blot analysis; format: functional, cell-based
Mus musculus [4] = experiment: Immunosuppressant activity in C57BL/6 mouse infected with Schistosoma japonicum assessed as inhibition of IFN-gamma production in spleen at 100 mM, iv after 45 days by ELISA; format: functional, organism-based
PBMC [5] = experiment: Induction of apoptosis in Con A-stimulated human PBMC assessed as late apoptotic cells at 90 uM after 72 hrs by annexin V/PI based flow cytometric analysis (reference value: 4.3 %); format: cell-based
[6] = molecular target: Tyrosine-protein kinase JAK1 (Homo sapiens) (UniProt P23458); experiment: Inhibition of JAK1-mediated GATA3 phosphorylation in PMA-stimulated human PBMC at 90 uM by Western blot analysis; details: TDE = time-dependent effect
PBMC [7] = experiment: Inhibition of Con A-induced phospho-GATA3 expression in human PBMC at 90 uM after 72 hrs by flow cytometry; format: functional, cell-based
T-cell [8] = experiment: Inhibition of CD4 expression in human CD4+ T cells; format: functional, cell-based
Mus musculus [9] = experiment: Immunosuppressant activity in C57BL/6 mouse infected with Schistosoma japonicum assessed as inhibition of IFN-gamma production in spleen at 100 mM, iv after 56 days by ELISA; format: functional, organism-based
Mus musculus [10] = experiment: Immunosuppressant activity in C57BL/6 mouse infected with Schistosoma japonicum assessed as inhibition of IL-4 production in spleen at 100 mM, iv after 56 days by ELISA; format: functional, organism-based
Mus musculus [11] = experiment: Immunosuppressant activity in C57BL/6 mouse infected with Schistosoma japonicum assessed as decrease in liver granuloma size at 100 mM, iv after 45 days; format: functional, organism-based
T-cell [12] = experiment: Immunosuppressant activity in human CD3+ CD4+ T cells pretreated with TritonX 100 assessed as reduction in CD4 surface expression at 90 uM after 72 hrs by flow cytometry (reference value: 46%); format: functional; design: scale not given: the % may be the effect or the level left
Splenocyte = experiment: Immunosuppressant activity in BALB/c mouse splenocytes assessed as reduction in Con A-induced IL4 secretion at 90 uM after 72 hrs by ELISA; format: functional, cell-based
Schistosoma japonicum = experiment: Antischistosomiasis activity against Schistosoma japonicum infected in C57BL/6 mouse at 100 mM, iv after 45 days; format: functional, organism-based
T-cell [13] = experiment: Immunosuppressant activity in human CD4+ T cells assessed as Con A-induced intracellular IL4 level at 90 uM after 72 hrs by flow cytometry (reference value: 4.2+/-0.9%); format: functional
[14] = molecular target: Tyrosine-protein kinase JAK1 (Homo sapiens) (UniProt P23458); experiment: Inhibition of PMA-induced JAK1 phosphorylation in human PBMC at 90 uM by Western blot analysis; details: TDE = time-dependent effect
Mus musculus [15] = experiment: Immunosuppressant activity in C57BL/6 mouse infected with Schistosoma japonicum assessed as inhibition of IFN-gamma production in liver at 100 mM, iv after 45 days by ELISA; format: functional, organism-based
Mus musculus [16] = experiment: Immunosuppressant activity in C57BL/6 mouse infected with Schistosoma japonicum assessed as inhibition of IL-4 production in liver at 100 mM, iv after 45 days by ELISA; format: functional, organism-based
PBMC [17] = experiment: Inhibition of Con-A-induced phospho-STAT6 expression in human PBMC at 90 uM after 72 hrs by flow cytometry (reference value: 10.52+/-1.9%); format: functional; details: read-out: INH
Mus musculus [18] = experiment: Immunosuppressant activity in C57BL/6 mouse infected with Schistosoma japonicum assessed as inhibition of IL-4 production in liver at 100 mM, iv after 56 days by ELISA; format: functional, organism-based
PBMC [19] = experiment: Inhibition of ConA-induced phospho-JAK1 expression in human PBMC at 90 uM after 72 hrs by flow cytometry; format: functional, cell-based
[20] = molecular target: Tyrosine-protein kinase JAK1 (Homo sapiens) (UniProt P23458); experiment: Inhibition of PMA-induced JAK1 phosphorylation in human PBMC at 90 uM after 15 mins by Western blot analysis
Mus musculus [21] = experiment: Immunosuppressant activity in C57BL/6 mouse infected with Schistosoma japonicum assessed as inhibition of IFN-gamma production in liver at 100 mM, iv after 56 days by ELISA; format: functional, organism-based
[22] = molecular target: Tyrosine-protein kinase JAK1 (Homo sapiens) (UniProt P23458); experiment: Inhibition of JAK1-mediated GATA3 phosphorylation in PMA-stimulated human PBMC at 90 uM after 30 mins by Western blot analysis
T-cell [23] = experiment: Immunosuppressant activity in human CD3+ CD4+ T cells assessed as reduction in CD4 surface expression at 90 uM after 72 hrs by flow cytometry (reference value: 46%); format: functional; design: scale not given: the % may be the effect or the level left
T-cell [24] = experiment: Immunosuppressant activity in human CD3+ CD4+ T cells pretreated with TritonX 100 assessed as CD4 internalization at 90 uM after 72 hrs by confocal laser scanning microscopy; format: functional, cell-based
PBMC [25] = experiment: Inhibition of PMA-induced GATA3 expression in human PBMC at 90 uM after 15 mins by Western blot analysis; format: functional, cell-based
PBMC [26] = experiment: Induction of apoptosis in Con A-stimulated human PBMC assessed as necrotic cells at 90 uM after 72 hrs by annexin V/PI based flow cytometric analysis (reference value: 5.8 %); format: cell-based
PBMC [27] = experiment: Induction of apoptosis in Con A-stimulated human PBMC assessed as early apoptotic cells at 90 uM after 72 hrs by annexin V/PI based flow cytometric analysis (reference value: 6.3 %); format: cell-based

Tyrosine-protein kinase JAK1 (Homo sapiens), sequence (P23458 whole entry): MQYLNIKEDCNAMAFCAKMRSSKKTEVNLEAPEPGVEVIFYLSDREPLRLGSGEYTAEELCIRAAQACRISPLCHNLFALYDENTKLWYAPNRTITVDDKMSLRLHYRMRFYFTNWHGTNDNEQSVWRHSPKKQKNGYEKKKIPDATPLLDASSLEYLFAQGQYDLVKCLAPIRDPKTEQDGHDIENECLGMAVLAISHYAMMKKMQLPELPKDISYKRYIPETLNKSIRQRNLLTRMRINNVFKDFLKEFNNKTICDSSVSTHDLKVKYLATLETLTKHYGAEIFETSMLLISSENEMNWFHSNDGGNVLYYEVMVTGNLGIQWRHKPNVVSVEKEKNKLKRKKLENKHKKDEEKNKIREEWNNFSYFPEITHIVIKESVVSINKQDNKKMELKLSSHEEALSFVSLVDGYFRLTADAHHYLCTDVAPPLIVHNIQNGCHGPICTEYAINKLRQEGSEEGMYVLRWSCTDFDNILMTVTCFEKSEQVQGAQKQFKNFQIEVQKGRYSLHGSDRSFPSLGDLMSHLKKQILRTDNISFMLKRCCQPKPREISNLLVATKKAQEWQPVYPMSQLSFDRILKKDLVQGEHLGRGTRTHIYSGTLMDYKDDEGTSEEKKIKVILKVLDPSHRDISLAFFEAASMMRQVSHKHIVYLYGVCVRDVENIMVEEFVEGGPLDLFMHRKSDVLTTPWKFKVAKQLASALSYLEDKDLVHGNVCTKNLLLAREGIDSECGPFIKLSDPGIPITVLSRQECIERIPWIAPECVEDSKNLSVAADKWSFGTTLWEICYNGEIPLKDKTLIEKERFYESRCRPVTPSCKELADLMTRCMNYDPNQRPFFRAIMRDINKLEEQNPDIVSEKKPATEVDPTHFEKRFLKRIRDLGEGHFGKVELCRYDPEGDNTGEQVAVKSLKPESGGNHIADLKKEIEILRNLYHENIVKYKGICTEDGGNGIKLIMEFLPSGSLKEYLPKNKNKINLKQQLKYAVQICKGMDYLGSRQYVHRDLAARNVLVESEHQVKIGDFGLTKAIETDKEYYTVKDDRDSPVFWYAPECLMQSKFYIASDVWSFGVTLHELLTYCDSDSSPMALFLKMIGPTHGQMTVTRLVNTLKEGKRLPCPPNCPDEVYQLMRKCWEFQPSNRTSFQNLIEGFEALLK

| IC50 (T-cell [8]) [µM] | inhibition [20] | inhibition [22] | SMILES | Activity (PBMC [2]) | inhibition (PBMC [3]) | inhibition (PBMC [7]) | Activity (T-cell [13]) [%] | phospho-STAT6 expression level at 90 µM (PBMC [17]) [%] | inhibition (PBMC [19]) | inhibition (PBMC [25]) | other results |
| --- | --- | --- | --- | --- | --- | --- | --- | --- | --- | --- | --- |
| 20.2 | Active | Active | OC[C@@H]1[C@@H](O)[C@H](O)[C@@H](O)CN1Cc1c(F)c(F)c(F)c(F)c1F | 26% | inactive | Active | 0.79 | 4.5 | Active | inactive | viability at 72 h, 90 µM [1]: 83%; inhibition (Mus musculus [4]): inactive; Activity (PBMC [5]): 5.2%; inhibition [6]: tde; inhibition (Mus musculus [9]): inactive; inhibition (Mus musculus [10]): Active; Activity (Mus musculus [11]): Active; Activity (T-cell [12]): 44%; Activity (Splenocyte): Active; Activity (Schistosoma japonicum): Active; inhibition [14]: tde; inhibition (Mus musculus [15]): inactive; inhibition (Mus musculus [16]): inactive; inhibition (Mus musculus [18]): inactive; inhibition (Mus musculus [21]): inactive; Activity (T-cell [23]): 28%; Activity (T-cell [24]): Active; Activity (PBMC [26]): 4.7%; Activity (PBMC [27]): 7.2% |
| 25.6 | inactive | inactive | OC[C@H]1NC[C@H](O)[C@@H](O)[C@@H]1O [DUVOGLUSTAT] | inactive | inactive | Active | 2.53 | 9.6 | Active | inactive | – |
| – | inactive | inactive | OC[C@H]1NC[C@@H](O)[C@@H](O)[C@@H]1O [DEOXYMANNOJIRIMYCIN] | – | inactive | Active | 1.5 | 8.8 | Active | inactive | – |
| – | – | – | C/C=C/C[C@@H](C)[C@@H](O)[C@H]1C(=O)N[C@@H](CC)C(=O)N(C)CC(=O)N(C)[C@@H](CC(C)C)C(=O)N[C@@H](C(C)C)C(=O)N(C)[C@@H](CC(C)C)C(=O)N[C@@H](C)C(=O)N[C@H](C)C(=O)N(C)[C@@H](CC(C)C)C(=O)N(C)[C@@H](CC(C)C)C(=O)N(C)[C@@H](C(C)C)C(=O)N1C [CYCLOSPORINE] | 26% | – | – | 0.71 | 3.7 | – | – | – |
